Data as given in publication PMC5556071, “ATR inhibition facilitates targeting of leukemia dependence on convergent nucleotide biosynthetic pathways” (Nature Communications, 2017).
Several values for one entry are separate records, joined by “and”; a condition that tells them apart may be missing. Equal entries are not always repeated.

Tests used:
RRM2 pT33 = assay: Phosphoproteomic nLC-MS/MS analysis of RRM2 phosphorylation; format: cell-based, human; set-up: key to RNR pT33: ↓: partial decrease/inhibition; ↓↓↓: nearly complete inhibition; ↑: increase; ⟷: no change
Protocol: against both the Uniprot human FASTA database and a decoy database of the Uniprot human database which read from C-terminus to N-terminus; Percolator was used to filter the data at 1% FDR at both the peptide and […]
Phosphoproteomic analyses. CCRF-CEM cells were prepared same as the asynchronous CEM cells total protein digests above, except that a total of 7.5 mg total protein from 1 x 10^8 cells was collected per treatment condition for phosphoproteomic analysis. tC18 Sep-Pak cartridges (Waters) were used for peptide desalting and Pierce Quantitative Colorimetric Peptide Assay was performed prior to phosphopeptide enrichment.
Hydrophilic interaction chromatography (HILIC) and immobilized metal affinity chromatography (IMAC) were performed same as previously described4. Data dependent nLC-MS/MS was performed on Thermo QExactive Plus same as above. Raw data was searched against Uniprot human database using MaxQuant 1.5.3.30 with the following search parameters: trypsin cleavage allowing up to 2 missed cleavages, fixed modification of carbamidomethyl to cysteines, variable modifications of acetylation to protein N-terminus, methionine oxidation, and phosphorylation to serine, threonine, and tyrosine, 10 ppm and 20 mmu mass errors for full MS and MS/MS, respectively, score of 40 or greater for modified peptides, and 1% false-discovery rate on peptide and protein identifications. Identified phosphopeptides were manually quantified by area-based extracted ion chromatograms of the monoisotopic peak. […]
Plasma samples were processed the same way as the calibration standard samples. 20 μL samples were injected onto a reverse phase column, (Thermo Scientific Hypersil GOLD column 3.0 µm; 2.1 x 100 mm) equilibrated in water/formic acid, 100/0.1, and eluted (200 μL/min) with an increasing concentration of solvent […]
The effluent from the column was directed to the Agilent Jet Stream ion source connected to the triple quadrupole mass spectrometer (Agilent 6460) operating in the multiple reaction monitoring (MRM) mode using previously optimized settings. The following drug precursor→fragment ion transitions were used: 3-AP

asynchronous CEM cells = assay: Quantitative global proteomics (nLC-MS/MS), asynchronous cells; format: cell-based, human
Protocol: To investigate the molecular mechanisms underlying the metabolic consequences of ATR and dCK inhibition, global changes in protein expression were assessed in CEM cells using quantitative nano-LC tandem MS (nLC-MS/MS) (Fig. 2a). Chemical isotope coding following reductive dimethylation of peptide N-termini and lysine primary amines with differential stable isotopes (light:medium:heavy) was used to compare expression of experimental (VE-822, dCKi and VE-822 + dCKi) samples to controls (untreated, NT) by mixing equal proportions for triplex nLC-MS/MS quantitative analyses. The data set was filtered for proteins identified in all treatment groups in three independent experiments with coefficients of variation <20%. This yielded 1757 proteins with relative fold changes in treated vs. untreated cells ranging from 0.45 to 1.83. […] Protein levels of both RNR subunits, RRM1 and RRM2, as well as thymidylate synthase decreased by more than 20% following ATR inhibition (Fig. 2c). Changes in the expression of de novo enzymes observed in synchronous cells also occurred with ATR inhibition in asynchronous CEM cells (Fig. 2d and Supplementary Data 3), thereby arguing against the possibility of experimental artifacts introduced by Palbociclib-mediated cell cycle synchronization. The reduction in RRM2 levels induced by ATR inhibition was accompanied by an ~ 50% decrease in the phosphorylation of RRM2 on threonine 33 (pT33) (Fig. 2e), a phosphosite previously linked to the RRM2 stability. […]
Proteomic analyzes. CCRF-CEM cells were treated ± with a CDK4/6 inhibitor, PD-0332991 (Selleckchem) for 18 h to arrest at G1 phase. Cells were then washed twice with PBS and released in fresh media with treatment at a density of 1 x 10^6 cells/mL. Cells were collected at 12 h, washed twice with ice-cold PBS, and lysed by trituration using 1 mL per 5 x 10^7 cells of 0.5% sodium deoxycholate, 12 mM sodium lauryl sarcosine, and 50 mM triethylammonium bicarbonate, pH 8.0. Lysates were heated at 95 °C for 5 min and water bath sonicated at room temperature (RT) for 5 min. Bicinchoninic acid protein assay (Pierce) was performed to determine protein concentration. Disulfide bridges were reduced with 5 mM tris(2-carboxyethyl)phosphine (final concentration) at RT for 30 min with subsequent treatment with 10 mM iodoacetamide (final concentration) at RT in the dark for 30 min. Solutions were diluted 1:5 (v:v) with 50 mM triethylammonium bicarbonate. Proteins were cleaved with sequencing grade trypsin (Promega) at 1:100 (enzyme:protein) for 4 h at 37 °C followed by a second aliquot of trypsin 1:100 (enzyme:protein) overnight at 37 °C. Samples were acidified with 0.5% trifluoroacetic acid (final concentration), vortexed rapidly for 5 min, and centrifuged (16,000 x g for 5 min, RT) to pellet sodium deoxycholate. Supernatants were transferred to new microcentrifuge tubes and 20 µg of total peptide were desalted using C18 StageTips as previously described2. On-column dimethyl labeling using C18 StageTips was performed as previously described3. Briefly, StageTips were equilibrated with 20 μL of 250 mM 2-(N-morpholino)ethanesulfonic acid (MES) pH 5.5. Tryptic peptides were dimethyl labeled using 60 mM sodium cyanoborohydride, 0.4% formaldehyde, and 250 mM MES pH 5.5 for 10 min. Dimethyl labeled peptides were eluted from StageTips using 20 μL of 80% acetonitrile with 0.1% trifluoroacetic acid and lyophilized to dryness. […]

[1] = asynchronous CEM, VE-822 1 µM, 12 h
[2] = 1 µM VE-822, 12 h, analyses #1-#3

For CNCc1ccc(-c2cc(-c3nc(-c4ccc(S(=O)(=O)C(C)C)cc4)cnc3N)on2)cc1 [VE-822], the “decrease in the phosphorylation of RRM2 on threonine 33 (pT33)” value (RRM2 pT33; [1]) was ~ 50%, the “mean fold change of RRM2 pT33 normalized to total RRM2” value (RRM2 pT33; [1]) was 0.43 ± 0.1 fold and the “observed fold decrease for pT33 (phosphoproteomic nLC-MS/MS)” value (RRM2 pT33; [1]) was 0.34 fold. For the same compound, the “RNR pT33” value (RRM2 pT33; summary Fig. 2g, CEM cells) was “↓”, the “Protein expression level normalized to control (NT): Apoptosis regulatory protein Siva (SIVA1)” value (asynchronous CEM cells; [2]) was 0.5843 and 0.5702 and 0.5605 and the “Protein expression level normalized to control (NT): Aspartate--tRNA ligase, cytoplasmic (DARS)” value (asynchronous CEM cells; [2]) was 0.9056 and 0.9095. For the same compound, the “Protein expression level normalized to control (NT): Eukaryotic translation initiation factor 2 subunit 3 (EIF2S3;EIF2S3L)” value (asynchronous CEM cells; [2]) was 0.9499 and 0.9479 and 0.9485, the “Protein expression level normalized to control (NT): GA-binding protein alpha chain (GABPA)” value (asynchronous CEM cells; [2]) was 0.6147 and 0.6159 and 0.6369 and the “observed fold decrease in total RRM2 protein (proteomic nLC-MS/MS)” value (asynchronous CEM cells; [1]) was 0.77 fold.
